Test results: PubChem BioAssay (NCI)
“And” between values parts separate entries of the source, which are not always exact repeats. Identical values can stand only once.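 Following 48 hours of exposure in 96-well plates, responses at five concentrations were used to interpolate endpoints linearly. Here, GI50 denotes the concentration required for 50% inhibition of growth. TGI denotes the concentration required for complete inhibition of growth.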 Where a SMILES comes first, the peptide text is derived from it. [ ]: non-standard residue; d: D form. The star is where a group is joined. ξ: configuration not given here. NMeY = CN[C@@H](Cc1ccc(O)cc1)C(=O)O; Cbz = O=C(OCc1ccccc1)*; ξA = CC(N)C(=O)O

Legend:
Experiment in all cases: NCI anticancer screen, dose series, 48 h
U251 CNS = tested on: U251 CNS
SK-OV-3 ovarian = tested on: SK-OV-3 ovarian
LOX IMVI melanoma = tested on: LOX IMVI melanoma
KM12 colon = tested on: KM12 colon
UACC-62 melanoma = tested on: UACC-62 melanoma
SNB-75 CNS = tested on: SNB-75 CNS
OVCAR-4 ovarian = tested on: OVCAR-4 ovarian
SW-620 colon = tested on: SW-620 colon
HCC-2998 colon = tested on: HCC-2998 colon
PC-3 prostate = tested on: PC-3 prostate

Row | SMILES | TGI (U251 CNS) | TGI (SK-OV-3 ovarian) [µM] | TGI (LOX IMVI melanoma) | TGI (KM12 colon) | TGI (UACC-62 melanoma) | TGI (SNB-75 CNS) | TGI (OVCAR-4 ovarian) [µM] | TGI (SW-620 colon) | TGI (HCC-2998 colon) | TGI (PC-3 prostate) | GI50 (U251 CNS) [µM] | GI50 (LOX IMVI melanoma) [µM] | GI50 (KM12 colon) [µM] | GI50 (UACC-62 melanoma) [µM] | GI50 (SNB-75 CNS) [µM] | GI50 (OVCAR-4 ovarian) [µM] | GI50 (HCC-2998 colon) [µM] | GI50 (PC-3 prostate) [µM]
1 | COc1ccc(C[C@@H](C(=O)NCC(N)=O)N(C)C(=O)[C@@H]2CCCN2C(=O)[C@H](CC(C)C)NC(=O)C(C)NC(=O)OCc2ccccc2)cc1 (stereo partly drawn) (Cbz-[ξA]LP[NMeY](Me)G-NH2) | > 100 µM | > 100 | > 100 µM | > 100 µM | > 100 µM | > 100 µM | > 100 | > 100 µM | > 100 µM | > 100 µM |  |  |  |  |  |  |  | 
2 | CC1CN=C(c2cccc(OCc3ccc(COc4cccc(C5=NCC(C)N5)c4)cc3)c2)N1 (stereo not drawn) | > 100 µM | > 100 | 62.1 µM | 81.7 µM | > 100 µM | 91.4 µM | > 100 | > 100 µM | 48.4 µM | > 100 µM |  |  |  |  |  |  |  | 
3 | NC(N)=N/N=C(\c1ccc(Cl)cc1)C1CC1 | 27.2 µM | 78.7 | 30 µM | 35.8 µM | 29.3 µM | 68.9 µM | > 100 | 35.2 µM | 19.4 µM | 34.9 µM |  |  |  |  |  |  |  | 
4 | COc1cn2c(cc1=O)COc1ccc(-c3ccccc3)cc1-2 | > 100 µM | > 100 | > 85.5 µM | > 100 µM | > 100 µM | > 100 µM | > 100 | > 100 µM | > 100 µM | > 100 µM |  |  |  |  |  |  |  | 
5 | Oc1ccc2ccccc2c1-c1nnc(CCCCCCCCc2nnc(-c3c(O)ccc4ccccc34)o2)o1 | 25 µM and > 63.8 µM | > 100 | 25 µM and > 100 µM | 25 µM and > 100 µM | 25 µM and > 100 µM | 25 µM and > 100 µM | 25 | 25 µM and > 43.2 µM | 11.9 µM and > 62.1 µM | 22.4 µM and 50.6 µM | 17.2 | 0.437 | 3.96 | 2.54 | 27.2 | 2.35 | 5.04 | 1.55
6 | CC1=NN(c2ccc(C)cc2)C2(C1)SCC(=O)N2c1nc2ccccc2s1 (stereo not drawn) | 65.5 µM | > 100 | 76.2 µM | > 100 µM | 45.6 µM | 64.7 µM | > 100 | > 100 µM | 48.3 µM | 70.1 µM |  |  |  |  |  |  |  | 
7 | CCCCn1cc(C(=O)O)c(=O)c2c3sccc3ccc21 | > 100 µM | > 100 | > 100 µM | > 100 µM | > 100 µM | > 100 µM | > 100 | > 100 µM | > 100 µM | > 100 µM |  |  |  |  |  |  |  | 
8 | CSc1c(C(C)=O)c(O)n(-c2ccc(Cl)cc2)c(=O)c1C#N | > 100 µM | > 100 | > 100 µM | > 100 µM | > 100 µM | > 100 µM | > 100 | > 100 µM | > 100 µM | > 100 µM |  |  |  |  |  |  |  | 
9 | Oc1c2cccc1Cc1cccc3c1OCCOCCOCCOCCOc1c(cccc1Cc1cccc(c1O)C3)C2 | > 100 µM | > 100 | > 100 µM | > 100 µM | > 100 µM | 87.3 µM | > 100 | > 100 µM | > 100 µM | > 100 µM |  |  |  |  |  |  |  | 
10 | CCCCC[C@H](O)[C@H](C)C=C1SCCCS1 | > 100 µM | > 100 | > 100 µM | > 100 µM | > 100 µM | > 100 µM | > 100 | > 100 µM | > 100 µM | > 100 µM |  |  |  |  |  |  |  | 
11 | O=C1/C(=C/c2ccccc2S)N=C(c2ccccc2)N1c1ccc2c(c1)Sc1cc(N3C(=O)/C(=C/c4ccccc4S)N=C3c3ccccc3)ccc1N2 | 40.5 µM | 33.8 | 48.1 µM | > 100 µM | 42.7 µM | 38.4 µM | 90.5 | 41.6 µM | 37.1 µM | 46.9 µM |  |  |  |  |  |  |  | 
12 | N#Cc1c(=O)c2cccnc2n2c1[nH]c1ccccc12 | > 100 µM | > 100 | > 100 µM | > 100 µM | > 100 µM | > 100 µM | > 100 | > 100 µM | > 100 µM | > 100 µM |  |  |  |  |  |  |  | 
13 | CC(=O)N(C(C)=O)n1c(Cc2ccc(Cl)cc2)nn(C(C)=O)c1=O | > 100 µM | > 100 | > 100 µM | > 100 µM | > 100 µM | > 100 µM | > 100 | > 100 µM | > 100 µM | > 100 µM |  |  |  |  |  |  |  | 
14 | Cc1ccc(S(=O)(=O)Nn2c(-c3ccccc3)c(C#N)c(-c3ccc([N+](=O)[O-])cc3)c(C#N)c2=O)cc1 | > 100 µM | > 100 | > 100 µM | > 100 µM | > 100 µM | > 100 µM | > 100 | > 100 µM | > 100 µM | > 100 µM |  |  |  |  |  |  |  | 
15 | Cc1[nH]c(=O)nc(N/N=C/c2ccc(Cl)c(Cl)c2)c1C(=O)Nc1ccc(Cl)c(Cl)c1 | 18.5 µM | 26.9 | > 57 µM | > 22.2 µM | 41.2 µM | 35.3 µM | 11 | > 30 µM | > 100 µM | > 51.5 µM |  |  |  |  |  |  |  | 
